# Biological target: T1, human IRAK4 (Homo sapiens, UniProt Q9NWZ3)
# T1 construct: GST (N); made in house; host or cells: baculovirus-infected Hi5 (BTI-TN-5B1-4) insect cells
# T1 sequence (Q9NWZ3 1-460): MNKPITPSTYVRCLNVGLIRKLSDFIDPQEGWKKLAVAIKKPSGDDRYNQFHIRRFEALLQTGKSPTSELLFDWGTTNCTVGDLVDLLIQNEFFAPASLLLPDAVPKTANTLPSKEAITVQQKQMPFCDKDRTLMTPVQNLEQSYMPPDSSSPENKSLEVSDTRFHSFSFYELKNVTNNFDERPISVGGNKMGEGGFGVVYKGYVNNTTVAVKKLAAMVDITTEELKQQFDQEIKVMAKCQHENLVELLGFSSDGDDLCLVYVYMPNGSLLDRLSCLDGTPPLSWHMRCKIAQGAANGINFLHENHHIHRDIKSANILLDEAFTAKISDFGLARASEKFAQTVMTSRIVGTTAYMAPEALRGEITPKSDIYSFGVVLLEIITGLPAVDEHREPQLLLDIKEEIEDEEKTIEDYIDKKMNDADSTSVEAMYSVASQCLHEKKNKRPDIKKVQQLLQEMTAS
# Assay: Human IRAK4 kinase activity inhibition assay (IRAK4 TR-FRET assay)
# Type: biochemical
# Details: 1 mM ATP, GST-human IRAK4, average or median values
# Description: The IRAK4-inhibitory activity of the inventive substances was measured in the IRAK4 TR-FRET assay (TR-FRET = Time Resolved Fluorescence Resonance Energy Transfer) described hereinafter.
# Recombinant fusion protein from N-terminal GST (glutathione S-transferase) and human IRAK4, expressed in baculovirus-infected insect cells (Hi5, BTI-TN-5B1-4, cell line purchased from Invitrogen, catalogue No. B855-02) and purified via affinity chromatography, was used as enzyme. The substrate used for the kinase reaction was the biotinylated peptide biotin-Ahx-[…] (C-terminus in amide form) which can be purchased, for example, from Biosyntan GmbH (Berlin-Buch). For the assay, 11 different concentrations in the range from 20 µM to 0.073 nM were prepared from a 2 mM DMSO solution of the test substance. 50 nl of the respective 100fold concentrated test compound solutions in DMSO were pipetted into a black low-volume 384-well microtitre plate or a black 1536-well microtiter plate (both Greiner Bio-One, Frickenhausen, Germany), 2 µl of a solution of IRAK4 in assay buffer [50 mM HEPES pH 7.5, 5mM MgCl2, 1.0 mM dithiothreitol, 30 µM activated sodium orthovanadate, 0.1% (w/v) of bovine gamma-globulin (BGG) 0.04% (v/v) nonidet-P40 (Sigma)] were added and the mixture was incubated for 15 min to allow prebinding of the substances to the enzyme prior to the kinase reaction. […] The concentration of the IRAK4 was adjusted to the respective activity of the enzyme and set such that the assay was carried out in the linear range. Typical concentrations were in the order of about 0.2 nM. The reaction was stopped by addition of 5 µl of a solution of TR-FRET detection reagents [0.1 µM streptavidin-XL665 (Cisbio Bioassays; France, catalogue No. 610SAXLG)] and 1.5 nM anti-phosphoserine antibody [Merck Millipore, "STK Antibody", catalogue No. 35-002] and 0.6 nM LANCE EU-W1024-labelled anti-mouse-IgG antibody (Perkin-Elmer, product No. AD0077; alternatively, it is possible to use a terbium cryptate-labelled anti-mouse-IgG antibody from Cisbio Bioassays) in aqueous EDTA solution (100 mM EDTA, 0.4 % [w/v] bovine serum albumin [BSA] in 25 mM HEPES pH 7.5). The resulting mixture was incubated at 22°C for 1 h to allow formation of a complex of the biotinylated phosphorylated substrate and the detection reagents. The amount of the phosphorylated substrate was then evaluated by measuring the resonance energy transfer from europium chelate-labelled anti-mouse-IgG antibody to streptavidin-XL665. To this end, the fluorescence emissions at 620 nm and 665 nm were measured after excitation at 350 nm in a TR-FRET measuring instrument, for example a Rubystar (BMG Labtechnologies, Offenburg, Germany) or a Viewlux (Perkin-Elmer). The ratio of the emissions at 665 nm and 622 nm was taken as a measure of the amount of phosphorylated substrate. The data were normalized (enzyme reaction without test substance = 0% inhibition; all other assay components but no enzyme = 100% inhibition).
row,SMILES,IC50 [nM]
1,"O=S1(=O)CCN(C2CN(c3nc(NC4CC4)nc4c3cnn4-c3cccc(C(F)(F)F)c3)C2)CC1 [Example I-53, N-cyclopropyl-4-[3-(1,1-dioxidothiomorpholin-4-yl)azetidin-1-yl]-1-[3-(trifluoromethyl)-phenyl]-1H-pyrazolo[3,4-d]pyrimidin-6-amine]",99.8
2,"CC(C)(O)C1CCN(c2nc(N[C@H]3CCOC3)nc3c2cnn3-c2cccc(C(F)(F)F)c2)CC1 [Example I-16-1, 2-(1-{6-[(3S)-tetrahydrofuran-3-ylamino]-1-[3-(trifluoromethyl)phenyl]-1H-pyrazolo[3,4-d]pyrimidin-4-yl}piperidin-4-yl)propan-2-ol]",19.4
3,"CC(C)(O)C1CCN(c2nc(N[C@@H]3CNC[C@H]3F)nc3c2cnn3-c2cccc(C(F)(F)F)c2)CC1 (relative stereo) [Example I-65, 2-[1-(6-{[rel-(3R,4R)-4-fluoropyrrolidin-3-yl]amino}-1-[3-(trifluoromethyl)phenyl]-1H-pyrazolo[3,4-d]pyrimidin-4-yl)piperidin-4-yl]propan-2-ol]",15.6
4,"CC(C)(O)C1CCN(c2nc(NC3CC(=O)NC3(C)C)nc3c2cnn3-c2cccc(C(F)(F)F)c2)CC1 (stereo not drawn) [Example I-6, 4-({4-[4-(2-hydroxypropan-2-yl)piperidin-1-yl]-1-[3-(trifluoromethyl)phenyl]-1H-pyrazolo-[3,4-d]pyrimidin-6-yl}amino)-5,5-dimethylpyrrolidin-2-one]",76.8
5,"CS(=O)(=O)CC1CN(c2nc(N[C@@H]3CNC(=O)C3)nc3c2cnn3-c2cccc(C(F)(F)F)c2)C1 [Example I-35, (4S)-4-[(4-{3-[(methylsulfonyl)methyl]azetidin-1-yl}-1-[3-(trifluoromethyl)phenyl]-1H-pyrazolo[3,4-d]pyrimidin-6-yl)amino]pyrrolidin-2-one]",16.5
6,"CS(=O)(=O)[C@H]1C[C@H](Nc2nc(N3C[C@@H](O)[C@H](F)C3)c3cnn(-c4cccc(C(F)F)c4)c3n2)C1 (relative stereo) [II-16-1, rel-(3R,4R)-1-(1-[3-(difluoromethyl)phenyl]-6-{[trans-3-(methylsulfonyl)cyclobutyl]-amino)-1H-pyrazolo[3,4-d]pyrimidin-4-yl)-4-fluoropyrrolidin-3-ol]",1.36
7,"C[C@@]1(O)CCN(c2nc(N[C@H]3C[C@H](S(C)(=O)=O)C3)nc3c2cnn3-c2cccc(C(F)(F)F)c2)C1 [Example I-103, (3R)-3-methyl-1-(6-{[(1r,3R)-3-(methylsulfonyl)cyclobutyl]amino}-1-[3-(trifluoromethyl)-phenyl]-1H-pyrazolo[3,4-d]pyrimidin-4-yl)pyrrolidin-3-ol]",11.4
8,"CN1CC[C@@H](Nc2nc(N3CCC(C(C)(C)O)CC3)c3cnn(-c4cccc(C(F)(F)F)c4)c3n2)C1 [Example I-13-2, 2-[1-(6-{[(3R)-1-methylpyrrolidin-3-yl]amino}-1-[3-(trifluoromethyl)phenyl]-1H-pyrazolo[3,4-d]pyrimidin-4-yl)piperidin-4-yl]propan-2-ol]",32.7
9,"CC1(O)CN(c2nc(N[C@@H]3CCN(S(C)(=O)=O)C3)nc3c2cnn3-c2cccc(C(F)(F)F)c2)C1 [Example I-41-1, 3-methyl-1-(6-{[(3R)-1-(methylsulfonyl)pyrrolidin-3-yl]amino}-1-[3-(trifluoromethyl)-phenyl]-1H-pyrazolo[3,4-d]pyrimidin-4-yl)azetidin-3-ol]",250
10,"O=C1C[C@@H](Nc2nc(N3CC(N4CCOCC4)C3)c3cnn(-c4cccc(C(F)(F)F)c4)c3n2)CN1 [Example I-1-2, (4R)-4-({4-[3-(morpholin-4-yl)azetidin-1-yl]-1-[3-(trifluoromethyl)phenyl]-1H-pyrazolo-[3,4-d]pyrimidin-6-yl}amino)pyrrolidin-2-one]",84.5
11,"CC(C)(O)C1CCN(c2nc(NC3CCS(=O)(=O)C3)nc3c2cnn3-c2cccc(C(F)(F)F)c2)CC1 (single isomer, unassigned; (-)) [Example I-4-3, (-)-2-(1-{6-[(1,1-dioxidotetrahydrothiophen-3-yl)amino]-1-[3-(trifluoromethyl)phenyl]-1H-pyrazolo[3,4-d]pyrimidin-4-yl}piperidin-4-yl)propan-2-ol]",68.5
12,"O=C1C[C@H](Nc2nc(N3CCOCC3)c3cnn(-c4cccc(C(F)(F)F)c4)c3n2)CN1 [Example I-28, (4S)-4-({4-(morpholin-4-yl)-1-[3-(trifluoromethyl)phenyl]-1H-pyrazolo[3,4-d]pyrimidin-6-yl}amino)pyrrolidin-2-one]",23.9
13,"CC1(O)CCN(C2CN(c3nc(NC4CCS(=O)(=O)CC4)nc4c3cnn4-c3cccc(C(F)(F)F)c3)C2)CC1 [Example I-80, 1-(1-{6-[(1,1-dioxidotetrahydro-2H-thiopyran-4-yl)amino]-1-[3-(trifluoromethyl)phenyl]-1H-pyrazolo[3,4-d]pyrimidin-4-yl}azetidin-3-yl)-4-methylpiperidin-4-ol]",11.4
14,OC1CCN(c2nc(N[C@H]3C[C@H](O)C3)nc3c2cnn3-c2cccc(C(F)(F)F)c2)CC1 [Example I-100],49.9
15,"CN(C)C1(C)CN(c2nc(N[C@@H]3CNC(=O)C3)nc3c2cnn3-c2cccc(C(F)(F)F)c2)C1 [Example I-38, (4S)-4-({4-[3-(dimethylamino)-3-methylazetidin-1-yl]-1-[3-(trifluoromethyl)phenyl]-1H-pyrazolo[3,4-d]pyrimidin-6-yl}amino)pyrrolidin-2-one]",16.2
16,"CN1CC[C@H](Nc2nc(N3CCC(C(C)(C)O)CC3)c3cnn(-c4cccc(C(C)(C)O)c4)c3n2)C1 [VI-1, 2-[1-(1-[3-(2-hydroxypropan-2-yl)phenyl]-6-{[(3S)-1-methylpyrrolidin-3-yl]amino}-1H-pyrazolo[3,4-d]pyrimidin-4-yl)piperidin-4-yl]propan-2-ol]",77.3

# The remaining lines, values ahead:
row,IC50 [nM],SMILES
1,170,"CCC1(O)CN(c2nc(N[C@H]3CCN(C)C3)nc3c2cnn3-c2cccc(S(C)(=O)=O)c2)C1 [Example V-1, 3-ethyl-1-(6-{[(3S)-1-methylpyrrolidin-3-yl]amino}-1-[3-(methylsulfonyl)phenyl]-1H-pyrazolo[3,4-d]pyrimidin-4-yl)azetidin-3-ol]"
2,56.7,"CCS(=O)(=O)N1CC(Nc2nc(N3CC(N4CCOCC4)C3)c3cnn(-c4cccc(C(F)F)c4)c3n2)C1 [II-32, 1-[3-(difluoromethyl)phenyl]-N-[1-(ethylsulfonyl)azetidin-3-yl]-4-[3-(morpholin-4-yl)azetidin-1-yl]-1H-pyrazolo[3,4-d]pyrimidin-6-amine]"
3,40,"CCS(=O)(=O)N1CC(Nc2nc(N3CC(CC(C)(C)O)C3)c3cnn(-c4cccc(C(F)F)c4)c3n2)C1 [II-28, 1-[1-(1-[3-(difluoromethyl)phenyl]-6-{[1-(ethylsulfonyl)azetidin-3-yl]amino}-1H-pyrazolo[3,4-d]pyrimidin-4-yl)azetidin-3-yl]-2-methylpropan-2-ol]"
4,45.3,"CS(=O)(=O)N1CC(Nc2nc(N3C[C@H](O)[C@@H](F)C3)c3cnn(-c4cccc(C(F)F)c4)c3n2)C1 [II-22, (3S,4S)-1-(1-[3-(difluoromethyl)phenyl]-6-{[1-(methylsulfonyl)azetidin-3-yl]amino}-1H-pyrazolo[3,4-d]pyrimidin-4-yl)-4-fluoropyrrolidin-3-ol]"
5,67.1,"C[C@@]1(O)CCN(c2nc(NC3CN(S(C)(=O)=O)C3)nc3c2cnn3-c2cccc(C(F)F)c2)C1 [II-29, (3R)-1-(1-[3-(difluoromethyl)phenyl]-6-{[1-(methylsulfonyl)azetidin-3-yl]amino}-1H-pyrazolo[3,4-d]pyrimidin-4-yl)-3-methylpyrrolidin-3-ol]"
